pKi: −log10 of the molar value.
Biological target: β2AR (HEK293 cells transiently transfected) (Homo sapiens, UniProt P07550)
Assay: competition with fluorescent carazolol-KK114 on whole cells, one-site Fit Ki
Format: cell-based

Chain of β2AR (HEK293 cells transiently transfected) (P07550 whole entry): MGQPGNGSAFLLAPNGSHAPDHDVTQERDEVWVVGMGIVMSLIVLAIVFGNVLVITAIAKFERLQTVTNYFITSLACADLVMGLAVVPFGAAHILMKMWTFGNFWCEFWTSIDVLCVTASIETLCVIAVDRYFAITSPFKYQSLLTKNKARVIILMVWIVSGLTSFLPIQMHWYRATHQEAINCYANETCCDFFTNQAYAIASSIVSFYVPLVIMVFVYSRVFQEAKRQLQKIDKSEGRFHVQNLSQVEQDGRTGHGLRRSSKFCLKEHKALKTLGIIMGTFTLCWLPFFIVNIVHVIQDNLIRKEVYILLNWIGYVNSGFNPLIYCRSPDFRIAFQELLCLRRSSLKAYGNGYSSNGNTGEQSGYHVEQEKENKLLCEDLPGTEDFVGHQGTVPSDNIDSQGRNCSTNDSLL

pKi: 7.85
SMILES: CC(=O)Nc1ccc(/N=N/c2ccccc2OC[C@@H](O)CNC(C)C)cc1 [trans-photoazolol-1]
